Measured values: US11147272B2, “Pyridone compounds and agricultural and horticultural fungicides comprising the same as active ingredients” (MITSUI CHEMICALS AGRO, INC., priority 2017, dated 2021)

Key:
[1] = test system: Alternaia brassicicola; assay: Test Example C: Alternaria sooty spot on cabbage; type: in vivo; conditions: 250 ppm drug solution sprayed on test plant
Excerpt: Seeds of a test plant (cabbage variety: Shikidori) were planted and cultivated until the cotyledons extended.
<Control Value> Control value=100{1−(n/3)}

[2] = test system: Magnaporthe grisea; assay: whole plant or invertebrate; type: in vivo; conditions: 250 ppm drug solution sprayed on test plant
[3] = test system: Plasmopara viticola; assay: Test Example G: Downy mildew on vine; conditions: 250 ppm drug solution sprayed (2.5 ml/pot), grape Neomuscat, 7 to 10 days after inoculation
[4] = test system: Puccinia recondita; assay: Test Example E: Brown rust on wheat; type: in vivo; conditions: 250 ppm drug solution sprayed on test plant
[5] = test system: Botrytis cinerea; assay: Test Example B: Gray mold on tomato; conditions: 250 ppm drug solution sprayed on test plant
[6] = test system: Blumeria graminis f. sp. hordei; assay: Test Example D: Powdery mildew on barley; conditions: 250 ppm drug solution sprayed on test plant
[7] = test system: Colletotrichum orbiculare; assay: Test Example H: Anthracnose on cucumber; conditions: 250 ppm drug solution sprayed (2.5 ml/pot), cucumber Sagami Hanjiro, 6 to 10 days after inoculation
[8] = test system: Phytophthora infestans; assay: whole plant or invertebrate; type: in vivo; conditions: 250 ppm drug solution sprayed on test plant

SMILES	Test C control value [1]	Test A control value [2]	Test G control value [3]	Test E control value [4]	Test B control value [5]	Test D control value [6]	Test H control value [7]	Test F control value [8]
CCCc1ccc(=O)n(CC)c1-c1c(F)cc(O)cc1F [compound 438]	H (more than 50% control value)	L (50% or less control value)	L (50% or less control value)	H (more than 50% control value)	H (more than 50% control value)	L (50% or less control value)	L (50% or less control value)	L (50% or less control value)
CCCc1cc(Cl)c(=O)n(CCC)c1-c1c(F)cc(F)cc1F [compound 439]	L (50% or less control value)	H (more than 50% control value)	L (50% or less control value)	L (50% or less control value)	L (50% or less control value)	L (50% or less control value)	H (more than 50% control value)	L (50% or less control value)
CCCc1cc(Br)c(=O)n(CCC)c1-c1c(F)cc(F)cc1F [compound 440]	L (50% or less control value)	H (more than 50% control value)	L (50% or less control value)	L (50% or less control value)	L (50% or less control value)	L (50% or less control value)	L (50% or less control value)	L (50% or less control value)
CCCc1cc(I)c(=O)n(CCC)c1-c1c(F)cc(F)cc1F [compound 441]	L (50% or less control value)	L (50% or less control value)	L (50% or less control value)	L (50% or less control value)	L (50% or less control value)	L (50% or less control value)	H (more than 50% control value)	L (50% or less control value)
CCCc1ccc(=O)n(CCC)c1-c1c(F)cc(OC)cc1F [compound 442]	L (50% or less control value)	H (more than 50% control value)	H (more than 50% control value)	H (more than 50% control value)	L (50% or less control value)	H (more than 50% control value)	H (more than 50% control value)	L (50% or less control value)
CCCc1cc(Cl)c(=O)n(CCC)c1-c1c(F)cc(OC)cc1F [compound 443]	H (more than 50% control value)	L (50% or less control value)	H (more than 50% control value)	H (more than 50% control value)	H (more than 50% control value)	L (50% or less control value)	H (more than 50% control value)	H (more than 50% control value)
CCCc1cc(Br)c(=O)n(CCC)c1-c1c(F)cc(OC)cc1F [compound 444]	H (more than 50% control value)	L (50% or less control value)	H (more than 50% control value)	H (more than 50% control value)	H (more than 50% control value)	L (50% or less control value)	H (more than 50% control value)	L (50% or less control value)
CCCc1cc(I)c(=O)n(CCC)c1-c1c(F)cc(OC)cc1F [compound 445]	H (more than 50% control value)	L (50% or less control value)	L (50% or less control value)	H (more than 50% control value)	H (more than 50% control value)	L (50% or less control value)	H (more than 50% control value)	L (50% or less control value)
CC(C)C(O)c1cc(Cl)c(=O)n(C)c1-c1c(F)cc(F)cc1F (stereo not shown) [compound 447]	H (more than 50% control value)	H (more than 50% control value)	H (more than 50% control value)	H (more than 50% control value)	H (more than 50% control value)	H (more than 50% control value)	H (more than 50% control value)	L (50% or less control value)
CC(C)C(=O)c1cc(Cl)c(=O)n(C)c1-c1c(F)cc(F)cc1F [compound 448]	L (50% or less control value)	L (50% or less control value)	L (50% or less control value)	L (50% or less control value)	H (more than 50% control value)	L (50% or less control value)	L (50% or less control value)	L (50% or less control value)
CCn1c(-c2c(F)cc(F)cc2F)c(C=O)ccc1=O [compound 449]	L (50% or less control value)	L (50% or less control value)	L (50% or less control value)	L (50% or less control value)	H (more than 50% control value)	L (50% or less control value)	L (50% or less control value)	L (50% or less control value)
CC(C)C(C)(O)c1cc(Cl)c(=O)n(C)c1-c1c(F)cc(F)cc1F (stereo not shown) [compound 450]	H (more than 50% control value)	H (more than 50% control value)	H (more than 50% control value)	H (more than 50% control value)	H (more than 50% control value)	H (more than 50% control value)	H (more than 50% control value)	H (more than 50% control value)
CCOC(C)(c1cc(Cl)c(=O)n(C)c1-c1c(F)cc(F)cc1F)C(C)C (stereo not shown) [compound 451]	L (50% or less control value)	H (more than 50% control value)	L (50% or less control value)	L (50% or less control value)	L (50% or less control value)	H (more than 50% control value)	L (50% or less control value)	L (50% or less control value)
COC(C)(c1cc(Cl)c(=O)n(C)c1-c1c(F)cc(F)cc1F)C(C)C (stereo not shown) [compound 452]	H (more than 50% control value)	H (more than 50% control value)	H (more than 50% control value)	H (more than 50% control value)	H (more than 50% control value)	H (more than 50% control value)	H (more than 50% control value)	L (50% or less control value)
CCn1c(-c2c(F)cc(F)cc2F)c(C(O)C(C)C)ccc1=O (stereo not shown) [compound 453]	H (more than 50% control value)	L (50% or less control value)	H (more than 50% control value)	H (more than 50% control value)	H (more than 50% control value)	H (more than 50% control value)	H (more than 50% control value)	L (50% or less control value)
CCn1c(-c2c(F)cc(F)cc2F)c(C(=O)C(C)C)ccc1=O [compound 454]	H (more than 50% control value)	L (50% or less control value)	L (50% or less control value)	H (more than 50% control value)	H (more than 50% control value)	H (more than 50% control value)	H (more than 50% control value)	L (50% or less control value)
CCn1c(-c2c(F)cc(F)cc2F)c(C(C)(O)C(C)C)ccc1=O (stereo not shown) [compound 455]	H (more than 50% control value)	L (50% or less control value)	H (more than 50% control value)	H (more than 50% control value)	H (more than 50% control value)	H (more than 50% control value)	H (more than 50% control value)	L (50% or less control value)
